Measurements taken from patent US20260297070A1, “CYCLIC [COMPOUND LEFT OUT] WRN INHIBITORS” (Nimbus Wadjet, Inc., priority 2023, published 2026).

Molecular target: T1, human Werner helicase (WRN-BV08, Uniprot Q14191, amino acids 517-1235 with L1074F point mutation) (Homo sapiens, UniProt Q14191, L1074F)
T1 construct: Uniprot Q14191, amino acids 517-1235 with L1074F point mutation; TEV-cleavable 8×His (C, cleaved yes); made in house; host or cells: Sf9 insect cells (baculovirus)
Experiment: WRN (BV08) ADP-Glo Assay
Assay type: biochemical
Settings: 0.15 nM WRN, 5 μM ATP, 0.1 nM DNA duplex, 15 min preincubation, 60 min at 25° C., pH 7.5, 1% DMSO; read-out: ADP-Glo_hWRN_IC50
In short: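 ADP produced by WRN helicase fragment 517-1235 (L1074F, baculovirus/Sf9, untagged) read by ADP-Glo luminescence after 60 min at 25 °C with 5 μM ATP and 0.1 nM duplex DNA, following 15 min compound preincubation. Final enzyme 0.15 nM in Bicine pH 7.5 buffer, 1% DMSO; 20 μM NSC-617145 defined full inhibition.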

T1 sequence (Q14191 with tags, fused parts or gaps L1074F limits assumed): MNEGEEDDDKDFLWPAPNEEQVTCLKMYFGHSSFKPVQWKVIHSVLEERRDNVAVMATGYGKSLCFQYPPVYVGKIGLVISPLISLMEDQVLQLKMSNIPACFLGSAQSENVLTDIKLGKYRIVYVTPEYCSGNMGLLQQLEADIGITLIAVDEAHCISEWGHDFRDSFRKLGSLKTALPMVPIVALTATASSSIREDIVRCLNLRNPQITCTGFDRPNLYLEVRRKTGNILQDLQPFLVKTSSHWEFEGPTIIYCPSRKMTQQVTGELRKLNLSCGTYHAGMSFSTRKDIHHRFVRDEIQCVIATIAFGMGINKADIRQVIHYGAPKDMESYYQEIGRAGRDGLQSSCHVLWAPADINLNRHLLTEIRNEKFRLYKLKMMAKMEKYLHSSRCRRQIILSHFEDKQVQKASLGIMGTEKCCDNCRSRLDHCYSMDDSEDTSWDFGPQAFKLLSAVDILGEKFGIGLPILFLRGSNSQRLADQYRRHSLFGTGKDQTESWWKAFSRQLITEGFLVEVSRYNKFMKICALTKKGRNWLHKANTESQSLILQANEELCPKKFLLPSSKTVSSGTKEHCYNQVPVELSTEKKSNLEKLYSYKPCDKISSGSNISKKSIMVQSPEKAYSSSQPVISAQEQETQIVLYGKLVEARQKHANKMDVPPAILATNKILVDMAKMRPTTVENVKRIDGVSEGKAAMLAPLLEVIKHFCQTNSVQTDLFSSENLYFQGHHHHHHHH

SMILES	IC50 [µM]
O=C(Cc1ccc(-n2cccc2)cc1)N(Cc1ccccc1Cl)C1C=CS(=O)(=O)C1 (stereo not shown) [I-521, N-[(2-chlorophenyl)methyl]-N-(1,1-dioxo-2,3-dihydro-1lambda6-thiophen-3-yl)-2-[4-(1H-pyrrol-1-yl)phenyl]acetamide]	> 50
CC(C)Oc1ccc(CC(=O)N(Cc2ccncc2)C2C=CS(=O)(=O)C2)cc1 (stereo not shown) [I-365, N-(1,1-dioxo-2,3-dihydro-1lambda6-thiophen-3-yl)-2-[4-(propan-2-yloxy)phenyl]-N-[(pyridin-4-yl)methyl]acetamide]	10 to 50
O=C(Cc1ccc(-c2nnco2)cc1)N(Cc1ccncc1)C1C=CS(=O)(=O)C1 (stereo not shown) [I-558, N-(1,1-dioxo-2,3-dihydro-1lambda6-thiophen-3-yl)-2-[4-(1,3,4-oxadiazol-2-yl)phenyl]-N-[(pyridin-4-yl)methyl]acetamide]	> 50
CN(C)C(=O)CC(C(=O)N(Cc1ccncc1)C1C=CS(=O)(=O)C1)c1ccc(-c2ccc(F)cc2)cc1 (stereo not shown) [I-475, N-(1,1-dioxo-2,3-dihydro-1lambda6-thiophen-3-yl)-2-{4′-fluoro-[1,1′-biphenyl]-4-yl}-N′,N′-dimethyl-N-[(pyridin-4-yl)methyl]butanediamide]	> 50
COC(C(=O)N(Cc1ccnc(C(C)(C)O)c1)C1C=CS(=O)(=O)C1)c1ccc(-c2ccc(F)c(F)c2)cc1F (single isomer, unassigned) [I-578, (2R*)-N-[(3R**)-1,1-dioxo-2,3-dihydro-1lambda6-thiophen-3-yl]-N-{[2-(2-hydroxypropan-2-yl)pyridin-4-yl]methyl}-2-methoxy-2-{3,3′,4′-trifluoro-[1,1′-biphenyl]-4-yl}acetamide]	10 to 50
Cc1ccn(-c2ccc(CC(=O)N(Cc3ccncc3)C3C=CS(=O)(=O)C3)cc2)c1 (stereo not shown) [I-355, N-(1,1-dioxo-2,3-dihydro-1lambda6-thiophen-3-yl)-2-[4-(3-methyl-1H-pyrrol-1-yl)phenyl]-N-[(pyridin-4-yl)methyl]acetamide]	10 to 50
O=C(Cc1ccc2c(c1)OCO2)N(Cc1ccncc1)C1C=CS(=O)(=O)C1 (stereo not shown) [I-494, 2-(2H-1,3-benzodioxol-5-yl)-N-(1,1-dioxo-2,3-dihydro-1lambda6-thiophen-3-yl)-N-[(pyridin-4-yl)methyl]acetamide]	> 50
O=C(Cn1cc(Br)cn1)N(Cc1ccncc1)C1C=CS(=O)(=O)C1 (stereo not shown) [I-408, 2-(4-bromo-1H-pyrazol-1-yl)-N-(1,1-dioxo-2,3-dihydro-1lambda6-thiophen-3-yl)-N-[(pyridin-4-yl)methyl]acetamide]	> 50
O=C(Cc1cccc2ccccc12)N(Cc1ccncc1)C1C=CS(=O)(=O)C1 (stereo not shown) [I-431, N-(1,1-dioxo-2,3-dihydro-1lambda6-thiophen-3-yl)-2-(naphthalen-1-yl)-N-[(pyridin-4-yl)methyl]acetamide]	> 50
COc1cc(CN(C(=O)C(OC)c2ccc(C(F)(F)F)cc2)C2C=CS(=O)(=O)C2)ccn1 (stereo not shown) [I-246, N-(1,1-dioxo-2,3-dihydro-1lambda6-thiophen-3-yl)-2-methoxy-N-[(2-methoxypyridin-4-yl)methyl]-2-[4-(trifluoromethyl)phenyl]acetamide]	5 to 10
COc1cc(CN(C(=O)C(O/C=C/S(C)(=O)=O)c2ccc(-c3ccc(F)c(F)c3)cc2F)[C@@H]2C=CS(=O)(=O)C2)ccn1 (single isomer, unassigned) [I-803, (2R*)-N-[(3R)-1,1-dioxo-2,3-dihydro-1lambda6-thiophen-3-yl]-2-{[(1E)-2-methanesulfonylethenyl]oxy}-N-[(2-methoxypyridin-4-yl)methyl]-2-{3,3′,4′-trifluoro-[1,1′-biphenyl]-4-yl}acetamide]	> 50
O=C(Cc1ccc(-n2cccc2)cc1)N(Cc1nc(CC(F)(F)F)cs1)C1C=CS(=O)(=O)C1 (stereo not shown) [I-148, N-(1,1-dioxo-2,3-dihydro-1lambda6-thiophen-3-yl)-2-[4-(1H-pyrrol-1-yl)phenyl]-N-{[4-(2,2,2-trifluoroethyl)-1,3-thiazol-2-yl]methyl}acetamide]	0.5 to 5
O=C(Cc1ccc(-n2cnnc2)cc1)N(Cc1ccncc1)C1C=CS(=O)(=O)C1 (stereo not shown) [I-532, N-(1,1-dioxo-2,3-dihydro-1lambda6-thiophen-3-yl)-N-[(pyridin-4-yl)methyl]-2-[4-(4H-1,2,4-triazol-4-yl)phenyl]acetamide]	> 50
O=C(Cc1ccc(-n2cccc2)cc1)N(Cc1cccc(B(O)O)c1)C1C=CS(=O)(=O)C1 (stereo not shown) [I-314, (3-{[N-(1,1-dioxo-2,3-dihydro-1lambda6-thiophen-3-yl)-2-[4-(1H-pyrrol-1-yl)phenyl]acetamido]methyl}phenyl)boronic acid]	10 to 50
O=C(Cc1ccc(-c2cccc(F)c2)cc1F)N(Cc1ccncc1)C1C=CS(=O)(=O)C1 (stereo not shown) [I-120, 2-{3,3′-difluoro-[1,1′-biphenyl]-4-yl}-N-(1,1-dioxo-2,3-dihydro-1lambda6-thiophen-3-yl)-N-[(pyridin-4-yl)methyl]acetamide]	0.5 to 5

Further lines, results first:

IC50 [µM]	SMILES
0.5 to 5	COc1nccc(CN(C(=O)Cc2ccc(-n3cccc3C)cc2F)C2C=CS(=O)(=O)C2)n1 (stereo not shown) [I-112, N-(1,1-dioxo-2,3-dihydro-1lambda6-thiophen-3-yl)-2-[2-fluoro-4-(2-methyl-1H-pyrrol-1-yl)phenyl]-N-[(2-methoxypyrimidin-4-yl)methyl]acetamide]
0.5 to 5	O=C(Cc1ccc(S(F)(F)(F)(F)F)cc1)N(Cc1ccnc(OC(F)F)c1)C1C=CS(=O)(=O)C1 (stereo not shown) [I-605, N-{[2-(difluoromethoxy)pyridin-4-yl]methyl}-N-(1,1-dioxo-2,3-dihydro-1lambda6-thiophen-3-yl)-2-[4-(pentafluoro-lambda6-sulfanyl)phenyl]acetamide]
0.5 to 5	O=C(Cc1ccc(-n2cccc2)cc1)N(Cc1nc2ccccc2s1)C1C=CS(=O)(=O)C1 (stereo not shown) [I-149, N-[(1,3-benzothiazol-2-yl)methyl]-N-(1,1-dioxo-2,3-dihydro-1lambda6-thiophen-3-yl)-2-[4-(1H-pyrrol-1-yl)phenyl]acetamide]
0.5 to 5	O=C(Cc1ccc(S(F)(F)(F)(F)F)cc1)N(Cc1ccnc(OC(F)(F)F)c1)C1C=CS(=O)(=O)C1 (stereo not shown) [I-725, N-(1,1-dioxo-2,3-dihydro-1lambda6-thiophen-3-yl)-2-[4-(pentafluoro-lambda6-sulfanyl)phenyl]-N-{[2-(trifluoromethoxy)pyridin-4-yl]methyl}acetamide]
< 0.5	CC(C)(O)c1cc(CN(C(=O)Cn2cc3cc(S(F)(F)(F)(F)F)ccc3n2)[C@@H]2C=CS(=O)(=O)C2)ccn1 [I-7, (R)—N-(1,1-dioxido-2,3-dihydrothiophen-3-yl)-N-((2-(2-hydroxypropan-2-yl)pyridin-4-yl)methyl)-2-(5-(pentafluoro-λ^6-sulfaneyl)-2H-indazol-2-yl)acetamide]
< 0.5	CC(C)(O)c1cc(CN(C(=O)Cn2cc(-c3ccccc3)cn2)[C@@H]2C=CS(=O)(=O)C2)ccn1 [I-43, N-[(3R)-1,1-dioxo-2,3-dihydro-1lambda6-thiophen-3-yl]-N-{[2-(2-hydroxypropan-2-yl)pyridin-4-yl]methyl}-2-(4-phenyl-1H-pyrazol-1-yl)acetamide]
< 0.5	CC(C)(O)c1cc(CN(C(=O)Cn2cc(-c3ccc(F)c(F)c3F)cn2)C2C=CS(=O)(=O)C2)ccn1 (single isomer, unassigned) [I-704]
